From PMC8226839, “New Perspectives in the Antimicrobial Activity of the Amphibian Temporin B: Peptide Analogs Are Effective Inhibitors of Candida albicans Growth” (Journal of Fungi, 2021) come the findings set out here.

Square brackets hold non-standard residues; d marks the D form. Peptide text beside a SMILES is read from it.

The test system of the data set is sheep erythrocytes. As to conditions: 50 μg per disk, Columbia blood agar plates, 37 °C, 24 h.

`CC[C@H](C)[C@H](NC(=O)[C@@H]1CCCN1C(=O)[C@H](CC(C)C)NC(=O)[C@H](CC(C)C)NC(=O)[C@@H](CCCCN)NC(=O)[C@H](N)CCCCN)C(=O)N[C@H](C(=O)N[C@H](CCCCN)C(=O)N[C@@H](CC(N)=O)C(=O)N[C@@H](CC(C)C)C(=O)N[C@@H](CC(C)C)C(=O)N[C@H](CCCCN)C(=O)N[C@@H](CO)C(=O)N[C@@H](CC(C)C)C(=O)N[C@@H](CC(C)C)C(N)=O)C(C)C` [D-Lys_TB_KKG6K] (H-[dK][dK]LLPIV[dK]NLL[dK]SLL-NH2): the hemolysis result is recorded as “did not induce the hemolysis”. In the case of `CC[C@H](C)[C@H](NC(=O)[C@@H]1CCCN1C(=O)[C@H](CC(C)C)NC(=O)[C@H](CC(C)C)NC(=O)[C@H](CCCCN)NC(=O)[C@@H](N)CCCCN)C(=O)N[C@H](C(=O)N[C@@H](CCCCN)C(=O)N[C@@H](CC(N)=O)C(=O)N[C@@H](CC(C)C)C(=O)N[C@@H](CC(C)C)C(=O)N[C@@H](CCCCN)C(=O)N[C@@H](CO)C(=O)N[C@@H](CC(C)C)C(=O)N[C@@H](CC(C)C)C(N)=O)C(C)C` [TB_KKG6K] (H-KKLLPIVKNLLKSLL-NH2), the hemolysis result is on record as “did not induce the hemolysis”.
